Data set [1] addresses T1, HIV-1 reverse transcriptase (Human immunodeficiency virus type 1 group M subtype B, UniProt P04585).
T1 construct: purified recombinant HIV-1 reverse transcriptase (RT, EC, 2.7.7.49) obtained by expression in Escherichia Coli; made in house; host or cells: Escherichia coli
In words: Inhibition of HIV-1 Reverse Transcriptase Enzyme. The class given is biochemical. The note with it: purified recombinant HIV-1 RT expressed in Escherichia Coli; [3H]-SPA or [3H]-flashplate enzyme assay; 5% final DMSO. The text has this: The activity of the compounds of the invention as reverse transcriptase inhibitors may be measured using the following assay.
Inhibition of HIV-1 Reverse Transcriptase Enzyme
Using purified recombinant HIV-1 reverse transcriptase (RT, EC, 2.7.7.49) obtained by expression in Escherichia Coli, a 96-well plate assay system is established for assaying a large number of samples using either the Poly(rA)-oligo(dT) Reverse Transcriptase [3H]-SPA enzyme assay system (Amersham NK9020) or the [3H]-flashplate enzyme assay system (NEN-SMP 103) and following the manufacturer's recommendations. The compounds are dissolved in 100% DMSO and diluted with the appropriate buffer to a 5% final DMSO concentration. The inhibitory activity is expressed in percent inhibition relative to DMSO control.

Consider `CCc1n[nH]c(CCOc2ccc(SC)cc2)c1Oc1cc(C#N)cc(C#N)c1` [Example 1, 5-[(3-Ethyl-5-{2-[4-(methylsulfanyl)phenoxy]ethyl}-1H-pyrazol-4-yl)oxy]isophthalonitrile], for which the concentration for half-maximal inhibition (IC50) in data set [1] came out at 0.002 µM.

For `CCc1n[nH]c(CCOc2ccc(S(C)(=O)=O)cc2)c1Oc1cc(C#N)cc(C#N)c1` [Example 3, 5-[(3-Ethyl-5-{2-[4-(methylsulfonyl)phenoxy]ethyl}-1H-pyrazol-4-yl)oxy]isophthalonitrile], the melting point lay in the range of 88 to 90 °C. Besides, the IC50 in data set [1] worked out at 0.045 µM.

(Values after patent publication US7220772B2, “Pyrazole derivatives” (Pfizer, Inc., priority 2003, dated 2007).)
